Data taken from ChEMBL document CHEMBL1145577, “IRAK-4 inhibitors. Part III: a series of imidazo[1,2-a]pyridines” (Bioorg Med Chem Lett, 2008).

Columns and labels:
[1] = target: T1, Interleukin-1 receptor-associated kinase 4 (Homo sapiens, UniProt Q9NWZ3); assay: Inhibition of IRAK4
T1 sequence (Q9NWZ3 whole entry): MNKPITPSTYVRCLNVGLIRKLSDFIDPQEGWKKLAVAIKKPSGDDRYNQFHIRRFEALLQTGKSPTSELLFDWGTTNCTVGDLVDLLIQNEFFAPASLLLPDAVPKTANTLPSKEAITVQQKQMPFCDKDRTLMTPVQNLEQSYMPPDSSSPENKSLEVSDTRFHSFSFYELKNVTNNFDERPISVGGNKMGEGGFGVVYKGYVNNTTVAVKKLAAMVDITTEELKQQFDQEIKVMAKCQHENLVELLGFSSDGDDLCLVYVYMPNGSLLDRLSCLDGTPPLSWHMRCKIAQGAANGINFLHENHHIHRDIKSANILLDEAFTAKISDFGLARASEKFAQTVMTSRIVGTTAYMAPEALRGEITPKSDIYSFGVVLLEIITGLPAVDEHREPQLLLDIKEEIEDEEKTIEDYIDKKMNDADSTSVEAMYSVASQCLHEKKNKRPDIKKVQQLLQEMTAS

[2] = target: Interleukin-1 receptor-associated kinase 1 (Homo sapiens, UniProt P51617); assay: Inhibition of IRAK1
Interleukin-1 receptor-associated kinase 1, sequence (P51617 whole entry): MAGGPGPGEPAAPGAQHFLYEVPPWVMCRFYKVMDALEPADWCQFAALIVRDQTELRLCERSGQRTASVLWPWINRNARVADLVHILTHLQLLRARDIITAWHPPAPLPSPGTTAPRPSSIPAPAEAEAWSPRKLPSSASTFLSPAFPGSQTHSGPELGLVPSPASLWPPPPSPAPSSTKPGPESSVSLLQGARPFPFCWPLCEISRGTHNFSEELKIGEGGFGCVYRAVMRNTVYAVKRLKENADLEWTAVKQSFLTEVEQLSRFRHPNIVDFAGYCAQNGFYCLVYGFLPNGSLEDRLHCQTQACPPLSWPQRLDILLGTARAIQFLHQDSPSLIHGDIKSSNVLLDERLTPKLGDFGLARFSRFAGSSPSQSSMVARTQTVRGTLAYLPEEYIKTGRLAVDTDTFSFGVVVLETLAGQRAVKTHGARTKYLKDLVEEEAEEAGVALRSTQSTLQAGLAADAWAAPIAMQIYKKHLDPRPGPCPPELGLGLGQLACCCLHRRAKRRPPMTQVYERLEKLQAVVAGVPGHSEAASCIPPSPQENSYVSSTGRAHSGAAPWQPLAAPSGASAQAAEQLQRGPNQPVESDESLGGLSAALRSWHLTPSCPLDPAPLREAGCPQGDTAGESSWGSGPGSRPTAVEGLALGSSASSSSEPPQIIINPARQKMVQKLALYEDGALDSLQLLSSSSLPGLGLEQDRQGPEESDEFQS

PBMC = assay: Inhibition of LPS-induced TNFalpha release in human PBMC cells; format: functional
[3] = Intrinsic clearance in human microsomes at 0.5 uM; format: ADME, Microsome
[4] = Intrinsic clearance in rat microsomes at 0.5 uM; format: ADME, Microsome
Cytochrome P450 2D6 = Cytochrome P450 2D6 (Homo sapiens, UniProt P10635); assay: Inhibition of CYP2D6; format: ADME
Cytochrome P450 2D6, sequence (P10635 whole entry): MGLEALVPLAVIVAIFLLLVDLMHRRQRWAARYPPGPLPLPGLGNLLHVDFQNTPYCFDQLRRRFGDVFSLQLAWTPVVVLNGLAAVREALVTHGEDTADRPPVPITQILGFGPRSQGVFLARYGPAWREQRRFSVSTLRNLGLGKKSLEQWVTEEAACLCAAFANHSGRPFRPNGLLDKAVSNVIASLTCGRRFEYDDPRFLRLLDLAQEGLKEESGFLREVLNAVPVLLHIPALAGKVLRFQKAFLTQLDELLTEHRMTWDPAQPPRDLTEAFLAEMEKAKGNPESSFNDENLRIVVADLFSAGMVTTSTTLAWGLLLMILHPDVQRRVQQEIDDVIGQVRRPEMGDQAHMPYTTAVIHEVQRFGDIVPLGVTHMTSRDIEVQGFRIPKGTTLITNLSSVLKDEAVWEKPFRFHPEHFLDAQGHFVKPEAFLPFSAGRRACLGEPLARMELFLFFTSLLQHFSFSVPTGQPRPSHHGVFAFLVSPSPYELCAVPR

Cytochrome P450 3A4 = Cytochrome P450 3A4 (Homo sapiens, UniProt P08684); assay: Inhibition of CYP3A4; format: ADME; design: concentration or dose not given beside the values
Cytochrome P450 3A4, sequence (P08684 whole entry): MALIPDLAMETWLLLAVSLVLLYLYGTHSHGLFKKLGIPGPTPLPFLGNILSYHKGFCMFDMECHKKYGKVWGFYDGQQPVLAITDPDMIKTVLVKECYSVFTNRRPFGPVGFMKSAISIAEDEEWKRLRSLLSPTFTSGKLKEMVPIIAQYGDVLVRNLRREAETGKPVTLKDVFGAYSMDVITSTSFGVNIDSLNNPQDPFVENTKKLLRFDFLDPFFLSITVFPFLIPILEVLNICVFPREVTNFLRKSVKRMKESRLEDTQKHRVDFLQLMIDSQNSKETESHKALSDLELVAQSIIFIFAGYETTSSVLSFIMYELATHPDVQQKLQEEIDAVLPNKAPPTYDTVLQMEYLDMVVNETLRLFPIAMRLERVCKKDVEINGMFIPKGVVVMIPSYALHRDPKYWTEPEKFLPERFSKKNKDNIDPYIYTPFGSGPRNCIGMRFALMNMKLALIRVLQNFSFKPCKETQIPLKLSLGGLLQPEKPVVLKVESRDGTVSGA

CYP2D6 [5] = target: T2, CYP2D6 (Homo sapiens, UniProt P10635); assay: Inhibition of CYP2D6 at 50 uM; format: ADME
T2 sequence (P10635 whole entry): as the sequence (P10635 whole entry) above

CYP2D6 [6] = target: T2, CYP2D6; assay: Inhibition of CYP2D6 at 10 uM; format: ADME
[7] = target: T3, Interleukin-1 receptor-associated kinase 4 (Homo sapiens) (UniProt Q9NWZ3); assay: Inhibition of IRAK4 at 10 uM
T3 sequence (whole entry): T1 sequence (Q9NWZ3 whole entry)

SMILES	IC50 [1]	further results
N#Cc1ccc2ncc(-c3cccc(N[C@@H]4CCCNC4)n3)n2c1	95 nM	
c1ccc(Nc2cccc(-c3cnc4ccccn34)n2)cc1	1160 nM	
c1cc(-c2cnc3ccccn23)nc(N2CCCNCC2)c1	487 nM	
Clc1cc2ncn(-c3cccc(NC4CCNCC4)n3)c2cc1Cl	166 nM	
COc1ccc2c(c1)ncn2-c1cccc(NC2CCNCC2)n1	208 nM	
c1cc(NC2CCNCC2)nc(-c2cnc3ccc(-c4ccc[nH]4)cn23)c1	63 nM	
c1cc(NC2CCNCC2)nc(-c2cnc3ccc(-c4cc[nH]n4)cn23)c1	2 nM	
Clc1ccc2ncc(-c3cccc(NC4CCCNC4)n3)n2c1 (racemic)		IC50 [2]: 175000 nM; Activity (PBMC): 65 nM; microsomal CLint at 0.5 µM [3]: 29.5 µL/min/mg; microsomal CLint at 0.5 µM [4]: 78.1 µL/min/mg; Inhibition (Cytochrome P450 2D6): 1.8%; Inhibition (Cytochrome P450 3A4): 8.6%
Clc1ccc2c(c1)ncn2-c1cccc(NC2CCNCC2)n1	112 nM	
COc1ccc2ncc(-c3cccc(NC4CCNCC4)n3)n2c1	6 nM	IC50 [2]: 293000 nM; Activity (PBMC): 220 nM; microsomal CLint at 0.5 µM [3]: 19.5 µL/min/mg; microsomal CLint at 0.5 µM [4]: 5.3 µL/min/mg; Inhibition (Cytochrome P450 3A4): 31%; inhibition at 50 µM (CYP2D6 [5]): 41%
Clc1ccc2ncc(-c3cccc(NC4CCNC4)n3)n2c1 (racemic)	1 nM	IC50 [2]: 23000 nM; Activity (PBMC): 16 nM; microsomal CLint at 0.5 µM [3]: 19.2 µL/min/mg; microsomal CLint at 0.5 µM [4]: 49.3 µL/min/mg; Inhibition (Cytochrome P450 2D6): 15%; Inhibition (Cytochrome P450 3A4): 12%
CN(C)C(=O)c1ccc2ncc(-c3cccc(NC4CCNCC4)n3)n2c1	49 nM	
c1cc(NC2CCNC2)nc(-c2cnc3ccccn23)c1 (racemic)	545 nM	
Clc1ccc2ncc(-c3cccc(NC4CNC4)n3)n2c1	6 nM	IC50 [2]: 195000 nM; Activity (PBMC): 54 nM; microsomal CLint at 0.5 µM [3]: 13 µL/min/mg; Inhibition (Cytochrome P450 3A4): 11%; inhibition at 10 µM (CYP2D6 [6]): 21%
COc1ccc(-c2ccc3ncc(-c4cccc(NC5CCNCC5)n4)n3c2)cn1	8 nM	
Clc1ccc2ncn(-c3cccc(NC4CCNCC4)n3)c2c1	3 nM	
Cn1nccc1Nc1cccc(-c2cnc3ccccn23)n1	1130 nM	
c1cc(NC2CNC2)nc(-c2cnc3ccccn23)c1	39 nM	
O=C(c1ccc2ncc(-c3cccc(NC4CCNCC4)n3)n2c1)N1CCOCC1	263 nM	
Cn1cnc(CNc2cccc(-c3cnc4ccccn34)n2)c1	497 nM	

SMILES	IC50 [1]	further results
N#Cc1ccc(Nc2cccc(-c3cnc4ccccn34)n2)cc1		inhibition [7]: 12%
c1cc(NC2C[C@H]3CC[C@@H](C2)N3)nc(-c2cnc3ccccn23)c1 (stereo partly drawn)	225 nM	
NCCCNc1cccc(-c2cnc3ccccn23)n1	1300 nM	
CN(C)CCCNc1cccc(-c2cnc3ccccn23)n1	8100 nM	
c1cc(NCC2CCCN2)nc(-c2cnc3ccccn23)c1 (racemic)	313 nM	
c1cc(N[C@H]2CCCNC2)nc(-c2cnc3ccccn23)c1	19 nM	
NC1CCCN(c2cccc(-c3cnc4ccccn34)n2)C1 (racemic)	535 nM	
COc1ccc2ncn(-c3cccc(NC4CCNCC4)n3)c2c1	15 nM	
Cn1cc(-c2ccc3ncc(-c4cccc(NC5CCNCC5)n4)n3c2)cn1	7 nM	
N#Cc1ccccc1Nc1cccc(-c2cnc3ccccn23)n1	433 nM	
COc1cc2ncn(-c3cccc(NC4CCNCC4)n3)c2cc1OC	181 nM	
c1cc(NCC2CCNCC2)nc(-c2cnc3ccccn23)c1	3030 nM	
CN1[C@@H]2CC[C@H]1CC(Nc1cccc(-c3cnc4ccccn34)n1)C2 (stereo partly drawn)	914 nM	
Cc1ccc2ncn(-c3cccc(NC4CCNCC4)n3)c2c1	10 nM	
Cc1ccc2c(c1)ncn2-c1cccc(NC2CCNCC2)n1	1080 nM	
NC(=O)c1ccc2ncc(-c3cccc(NC4CCNCC4)n3)n2c1	5 nM	
N#Cc1ccc2ncc(-c3cccc(NC4CCNCC4)n3)n2c1	4 nM	IC50 [2]: 96000 nM; Activity (PBMC): 200 nM; microsomal CLint at 0.5 µM [3]: 8.3 µL/min/mg; microsomal CLint at 0.5 µM [4]: 39.9 µL/min/mg; Inhibition (Cytochrome P450 2D6): 42%; Inhibition (Cytochrome P450 3A4): 22%
NC1CCN(c2cccc(-c3cnc4ccccn34)n2)CC1	1880 nM	
COc1ccc2ncc(-c3cccc(NC4CNC4)n3)n2c1	7 nM	
c1cc(-c2cnc3ccccn23)nc(N2C[C@H]3C[C@@H]2CN3)c1	126 nM	
